The assay concerns IGF1R-Sal tumors. Briefly: IGF-1R Sal Tumor Model. Particulars: orally, qd × 4 days, nude mice bearing IGF1R-Sal tumors. The assay is classed as in vivo. The protocol: P. IGF-1R Sal Tumor Model
A salivary gland adenocarcinoma that developed spontaneously in a transgenic mouse (MCI-19) was excised and cut into fragments of about 20 mg. Tumor fragments were implanted s.c. into the ventral thoracic region of a group of six female, athymic BALB/c nu/nu mice (Harley Sprague-Dawley, Indianapolis, Ind.), using a 13-gauge trocar. Once established, the salivary gland-derived tumor line was designated IGF1R-Sal and was propagated as a tumor xenograft in nude mice. Tumors were passaged every 2 weeks, at which time the tumor reached f500 to 1,000 mm3 in size. For treatment studies, nude micebearing IGF1R-Sal tumors of about 100 mm3 in size were sorted into groups of five for treatment with vehicle (80% polyethylene glycol 400 in water) alone or the test article. Compounds were administered either on a bid schedule (oral doses 8 hours apart) or on a once a day schedule orally (qd) for 4 consecutive days. Tumors were measured at the start and end of treatment. Activity was measured as % tumor growth inhibition (% TGI). The % TGI was determined using the following formula (Ct−Tt)/(Ct−Co) where Ct is defined as the median tumor size of the control group at the end of treatment, Co is defined as the median tumor size of the control group at the start of treatment, and Tt is defined as the median tumor size of the treated group at the end of treatment.

The structures appear in SMILES notation.

Six compounds from patent publication US8415340B2, “Triazine kinase inhibitors” (Bristol-Myers Squibb Company, priority 2007, dated 2013) can be followed below.

In the case of `CN1CCN(c2nc(Nc3cc(C4CC4)n[nH]3)nc(N3C[C@H](F)C[C@H]3C(=O)Nc3ncns3)n2)CC1` [Example 83, (2S,4R)-1-(4-(3-Cyclopropyl-1H-pyrazol-5-ylamino)-6-(4-methylpiperazin-1-yl)-1,3,5-triazin-2-yl)-4-fluoro-N-(1,2,4-thiadiazol-5-yl)pyrrolidine-2-carboxamide], the “% TGI (50 mpk)” value is recorded as 27%. With `O=C(Nc1cnccn1)[C@@H]1C[C@@H](F)CN1c1nc(Nc2cc(C3CC3)n[nH]2)nc(N2CCOCC2)n1` [Example 65, (2S,4R)-1-(4-(3-Cyclopropyl-1H-pyrazol-5-ylamino)-6-morpholino-1,3,5-triazin-2-yl)-4-fluoro-N-(pyrazin-2-yl)pyrrolidine-2-carboxamide], the “% TGI (3.13 mpk)” value was determined as 80%. Consider `COCCN1CCN(c2nc(Nc3cc(C4CC4)n[nH]3)nc(N3C[C@H](F)C[C@H]3C(=O)Nc3ncns3)n2)CC1` [Example 84, (2S,4R)-1-(4-(3-Cyclopropyl-1H-pyrazol-5-ylamino)-6-(4-(2-methoxyethyl)piperazin-1-yl)-1,3,5-triazin-2-yl)-4-fluoro-N-(1,2,4-thiadiazol-5-yl)pyrrolidine-2-carboxamide], for which the “% TGI (50 mpk)” value turned out to be 25%. As to `O=C(Nc1cnccn1)[C@@H]1C[C@H](O)CN1c1nc(Nc2cc(C3CC3)n[nH]2)nc(N2CCOCC2)n1` [Example 85, (2S,4S)-1-(4-(3-Cyclopropyl-1H-pyrazol-5-ylamino)-6-morpholino-1,3,5-triazin-2-yl)-4-hydroxy-N-(pyrazin-2-yl)pyrrolidine-2-carboxamide], the “% TGI (6.25 mpk)” value is recorded as 49%. The same measure, in the same setting: to `CN1CCN(c2nc(Nc3cc(C4CC4)n[nH]3)nc(N3C[C@H](F)C[C@H]3C(=O)Nc3cnccn3)n2)CC1` [Example 68, (2S,4R)-1-(4-(3-Cyclopropyl-1H-pyrazol-5-ylamino)-6-(4-methylpiperazin-1-yl)-1,3,5-triazin-2-yl)-4-fluoro-N-(pyrazin-2-yl)pyrrolidine-2-carboxamide] belongs 7%. Turning to `CO[C@H]1C[C@@H](C(=O)Nc2cnccn2)N(c2nc(Nc3cc(C4CC4)n[nH]3)nc(N3CCOCC3)n2)C1` [Example 18, (2S,4S)-1-(4-(3-Cyclopropyl-1H-pyrazol-5-ylamino)-6-morpholino-1,3,5-triazin-2-yl)-4-methoxy-N-(pyrazin-2-yl)pyrrolidine-2-carboxamide], the “% TGI (3.13 mpk)” value is 96%.
